As usually defined, the viability is a per cent measure of how many cells are alive, often set against a control.

Series [1] can be described thus: 96-well MTS viability assay, GT41F fibroblasts. It counts as cell-based, human. To be noted: human, GT41F skin fibroblasts, spd-3a 1 μM, single agent, read-out: viability retained. As for the experimental part: (§1) Cells were plated in 96-well plates at 2000 cells per well and treated with the indicated doses of spd-3a. Cell viability was measured by the MTS assay 3 days later.
DLD-1 cells or H358 cells were plated in 96-well plates at 2000 cells per well and treated with the indicated doses of (A) spm-3 or (B) spm-2. (C) Cell viability was measured by the MTS assay 3 days later. Similar experiment using GT41 fibroblasts with spm2 or spm 3. Each assay point represents an average of duplicates.
A general note: Tetrazolium assays rely on reduction of a dye to a coloured formazan, in cell work by metabolically active cells.

Series [2] has as its system histone H3 lysine 9 acetylation in H358 cells. Nature of the series: Western analysis of histone H3 acetylation/methylation in H358 cells. It counts as cell-based. The conditions noted are these: 50 μM, 12 hours. As for the experimental part: (§2) (A) Structures of 1a, and the acetylated side chain of a lysine residue within the polypeptide chain of a protein targeted by the acetylating enzyme (R1 and R2 are the main chain elements on both sides of the lysyl residue). (B) [^3H]-thymidine incorporation into DNA of H358 cells pulsed for 6 hrs at three different time points after the addition of increasing concentrations of 1a, i.e., at 6-12 hrs (12 hr curve), at 18-24 hours (24 hr curve), or at 42-48 hrs (48 hr curve). Incorporation is represented as a percentage relative to control (untreated) cells. (C) Cell cycle analysis of propidium iodide-stained cells harvested at various times after addition of 50 μM 1a. % of cells in G1, S, and G2 represents the average of two independent profiles. (D) Western analysis of histone H3 lysine 9 acetylation, histone H3 lysine 56 acetylation, histone H3 lysine 9 methylation, and total histone H3, before “c” or at the indicated times after addition of 50 μM 1a. Each lane represents 60 μg cellular protein.
Each lane represents 175 μg cell lysate protein.
One 6 cm culture dish of H358 cells per treatment was used. Cells were treated with 50 μM spm-2, spm-3, or spd-3a for 12 hours. Histones were extracted from cells in 0.2M H2SO4 (as described in Furuta, T., et al (2003) J. Biol. Chem. 278: 20303-20312), followed by SDS-PAGE and Western blotting. Blots were probed with anti-acetyl histone H3-lysine 9 (Upstate Biotechnology, Inc.)
Cells were lysed by adding 1 mL of 0.2 M H2SO4. […]
One 10-cm plate of H358 lung cancer cells (about 2×10^6 cells), grown in DMEM+10% Fetal bovine serum as described in reference, were treated for 24 hours with 50 μM 1a inhibitor. […] Treated cells and untreated (control) cells were harvested by lysing in buffer containing 10 mM Hepes pH 7.5, 100 mM NaCl, 300 mM sucrose, 3 mM MgCl2, 1 mM EDTA, 1 mM DTT, 0.5% Triton X-100, 1 mM PMSF, protease inhibitor pellet (Roche) and analyzed on 10% SDS-PAGE gels, followed by Western immunoblot analysis of total histone H3, methylated histone H3 (methylated on lysine 9), and acetylated histone H3 (acetylated on lysine 9). […]

A short description of series [3]: In vivo toxicity in nude mice (tail vein injection). To be noted: 100 μl of 5 mM, approximately 10 mg/kg, twice per week for 3 weeks, 4 mice. On the procedure:
They injected a second set of 4 mice with 100 μl of spd-3a (5 mM, approximately 10 mg/kg, or about 0.25 mM initial blood concentration), twice per week for 3 weeks.

For series [4], the system named is endogenous HATs associated with solubilized chromatin. The conditions noted are these: Parello et al. 1990; cited from earlier work.
The test system of series [5] is H358 lung cancer cells. In kind it is cell-based. To be noted: CPT 5 nM 18 hours + 3a. As for the experimental part:
(§3) Control cells were left untreated. […] Control cells were left untreated.
Cells were given fresh inhibitor on the first, second, and third days of treatment and viability was measured on the 4th day (i.e. 3 days post start of treatment). […]
(A) Structure of Spd-3a. (B) Western analysis of histone H3K9-acetylation and total histone H3, measured in control, untreated H358 lung cancer cells “C” or in H358 cells incubated 12 hours in the presence of 50 μM Spd-2a or Spd-3a. Each lane represents 60 μg cellular protein. (C) [3H]-thymidine incorporation (counts per minute) into DNA of H358 cells during a 6 hour pulse beginning at 42 hours post-start of treatment. Treatments were as follows (bars 1-6 left to right): (1) control: no treatment; (2) CPT alone: 5 nM 18 hours; (3) 3a alone: 50 μM; (4-6) 3a+CPT: CPT (5 nm, 18 hours)+3a at indicated dose. After 18 hours, CPT was removed and medium was replaced with fresh medium containing Spd-3a at the indicated dose. Each bar represents the average of triplicates. (D) 3-day 96-well viability assay of H358 cells grown in the presence of increasing amounts of Spd-2a or Spd-3a, with or without CPT (5 nM 18 hours). […] Each data point represents the average of three wells.
Date of exp: Jul. […] Date of exp: Sep.
as §1
DLD-1 cells or H358 cells were plated in 96-well plates at 2000 cells per well and treated with the indicated doses of (A) spm-3 or (B) spm-2. (C) Cell viability was measured by the MTS assay 3 days later. Similar experiment using GT41 fibroblasts with spm2 or spm 3. Each assay point represents an average of duplicates. […]

The subject of series [6] is H358 lung cancer cells. The series is described as follows: [3H]-thymidine incorporation (DNA synthesis) assay in H358 cells. In kind it is cell-based. As for the experimental part: as §2, §3
Cells were either labeled immediately before treatment (starting DNA synthesis rate), or subjected to the indicated treatments and then pulsed on successive days until day 4. DNA synthesis is represented as the percent of starting DNA synthesis rate. Viability was determined for each treatment condition 24 hours post-start of treatment by the trypan blue exclusion assay, with percentages of viable cells indicated to the right of the graph.
H358 cells (2,000/well) in 96-well plates were treated with 1, 10 or 50 μM of spd-1a, spd-2a, spd-3a, spm3, or spm2 for 12 hours. Triplicate wells of cells were pulsed 6 hours with 0.5 μCi [^3H]-thymidine (NEN, Boston Mass.) post-start of drug treatment, and harvested onto filter paper using a Brandel Harvester and subjected to scintillation counting. Untreated cells were pulsed from 0-6 hrs to establish the initial rate of incorporation.
Cells were plated in 96-well plates (2000 cells per well to insure conditions for exponential growth for untreated cells over the time course of the experiment) and exposed to the following treatments: 1a (50 μM); camptothecin (Sigma, St Louis, Mo. 5 nM, 18 hours); cisplatin (Platinol, obtained through local pharmacies, 2 μM, 1 hour 15 minutes), 5-fluorouracil (5FU, Adrucil™, obtained through local pharmacies, 2 μM, 1 hour 15 minutes), Taxotere (provided by the late Dr. Pierre Potier, 5 nM, 18 hours). UVC treatment (40 J/m^2) using a Stratalinker™, Stratagene, La Jolla, Calif.) was carried using medium lacking phenol red. At 0-6 hr, 18-24 hr (day 1), 42-48 hr […], 66-72 hr (day 3), and 90-96 hr (day 4) post-start of treatment, triplicate wells were incubated with 0.5 μCi [^3H]-thymidine (NEN, Boston Mass.), harvested onto filter paper, and subjected to scintillation counting. Trypan blue exclusion assays for cell membrane integrity were carried out as known in the art.
The present inventors used 96-well viability assays as described in Saadatmandi et al (Cancer Gene Therapy (2002) 9:[…]) to examine the effect of 1a on DNA synthesis in H358 cells, as well as the combined effects of 1a and chemotherapeutic agents. H358 cells were plated in 96-well plates at 3000 cells per well. […]
In general terms: Uptake of a labelled nucleoside into DNA is a usual measure of proliferation.

The test system of the next series is MCF7 breast cancer cells. To be noted: 72 hr assay; DFMO 100 μM, 5FU 2 μM, doxorubicin 100 nM. On the procedure: Viability was measured 3 days after the start of treatment and is expressed as a percentage of control (untreated) cell viability.
Each point is average of triplicates. […]
The present inventors carried out 96-well viability assays as we have previously described (Saadatmandi et al, Cancer Gene Therapy (2002) 9:830-9), in which MCF7 breast cancer cells were plated at 3000 cells per well. After overnight attachment, triplicate wells were treated with increasing doses of inhibitor 1a. Control wells were left untreated. After 3 days, cell viability was measured by the MTS assay, which measures the bioconversion of an uncolored substrate to a colored formazan derivative, and is proportional to cell number.

The subject of series [7] is MDA MB-435 breast cancer cells. Nature of the series: 72 hr viability assay, MDA MB-435. It counts as cell-based. To be noted: 72 hr assay; DFMO 100 μM, 5FU 2 μM, doxorubicin 100 nM.
The next series deals with DLD-1 colon cancer. Nature of the series: Nude mouse subcutaneous DLD-1 tumor model. The conditions noted are these: DFMO only, intratumoral 2 mg/kg. It counts as in vivo. As for the experimental part:
Tumors were initiated By subcutaneous implantation of […] DLD-1 colon cancer cells. […] Tumors were measured and volumes calculated as in FIG. 14.
Tumors were initiated by injecting 10^6 DLD-1 cells (from ATCC) per mouse (female nude mouse, 4-5 weeks, Harlan Labs) subcutaneously in the flank. (A) When the average tumor size reached 26 mm^3, animals were randomized into 2 groups (3 per group). One group was left untreated and served as the control (-●-). […] Tumors were measured bidirectionally at 2-3 day intervals and tumor volumes were calculated (v=½ L×w^2). A paired t-test was used to evaluate the significance of the differences between the two groups of animals. […] (B) Tumors were initiated as in part (A). When tumors reached an average size of about 30 mm^3, animals were randomized into three groups of 2 animals each. The control group (-●-) received no treatment. The DFMO group (-▪-) received intratumoral injections of DFMO (2 mg/kg) on days 1, 7, 9 (5 PM), and 2, 8, 10 (9 AM, 5 PM). […] Tumors were measured and volumes calculated as in part (A). A paired t-test was used to evaluate the significance of the difference between the curves.

Consider `CC(=O)NCCSCC(=O)NCCCNCCCCN` [3a], for which the viability at 3 days, 1 µM in [1] is approximately 60%. For the same molecule, the “histone H3K9 acetylation (Western)” value in series [2] is listed as “nearly complete ablation”; in [2] (listed as spd-3a) it was “suppress histone acetylation”. Moreover, in series [3], the signs of toxicity result is recorded as “no signs of distress or illness”. Moreover, the “inhibitory effect on endogenous HATs, compared with Spd-2a” value in series [4] is listed as “lower inhibitory effect than Spd-2a”. In addition, the “suppression of 3-day cell viability in combination with camptothecin” value in the series on H358 lung cancer cells [5] was “effective”. Further, in the series on H358 lung cancer cells [6] (1, 10 or 50 μM, 12 hours), the “inhibition of DNA synthesis” value is on record as “inhibit DNA synthesis”. In addition, in the series on H358 lung cancer cells [6] (CPT 5 nM 18 hours + 3a, pulse at 42 hours), the “suppression of DNA synthesis in combination with camptothecin” value is on record as “effective”.
Take `NCCC[C@](N)(C(=O)O)C(F)F` [DFMO, α-difluoromethylornithine]: the “effect as single agent on viability” value (in the series with MCF7 breast cancer cells; in [7]) was “ineffective” each time. Also, the “difference between control and treated tumor curves” value in the series with DLD-1 colon cancer is reported as “not significant”.

These data come from patent US10617656B2, “Methods of increasing the cytotoxicity of chemotherapeutic agents with multisubstrate inhibitors of histone, protein-Lys, polyamine acetylation, and polyamine metabolism” (Vanderbilt University, priority 2010, dated 2020).
